Measured values taken from patent US20140343324A1, “SYNTHETIC MATRIX FOR CONTROLLED CELL INGROWTH AND TISSUE REGENERATION” (Eidgenossische Technische Hochschule Zürich, priority 2001, published 2014).

Tested on: human foreskin fibroblasts (hFFs)
Experiment: Three-dimensional cell invasion from hFF-fibrin clusters into PEG-based hydrogels
Conditions: compared with collagen type I derived GCRDGPQGIAGQDRCG
Protocol: Near-confluent cultures of human foreskin fibroblasts (hFFs) were trypsinized, centrifuged and resuspended in 2% (m/v) fibrinogen from human plasma (Fluka, Switzerland) in sterile phosphate buffered solution (PBS) to a concentration of […]. To induce gelation of the hFF-fibrinogen suspension, thrombin (Sigma T-6884, Switzerland) and Ca^++ were added to final concentrations of 2 NIH units/mL and 2.5 mM, respectively, and rapidly mixed with the cell suspension. Prior to gelation, 2 μL droplets of this cell-fibrinogen precursor were gelled on microscope slides for ca. 15 min. at 37° C. The hFF-fibrin clusters were embedded inside 25 μl PEG-based hydrogels by placing three to four clusters into precursor solution prior to gelation. Such hFF-fibrin clusters embedded inside the PEG-based hydrogels were cultured serum-containing DMEM in the 12-well tissue culture plates for up to 30 days. Cell invasion from the cluster into the synthetic gel matrix was imaged and recorded with their center plane in focus. To quantify the penetration depth of the outgrowth, the area of the original hFF-fibrin cluster was measured in the center plane, as was the area of the hFF outgrowth, defined by the tips of the hFF branches in the center plane of focus. […]

GCRDGPQGIWGQDRCG (Ac-GCRDGPQGIWGQDRCG-NH2; cysteine pairing not given here) [synthetic MMP substrate capable of forming a hydrogel by Michael-type addition]
degradation of MMP substrate in hydrogel: degrades significantly faster
